This note sets out measurements from a melting point compilation (Tetko et al.; mined from patent text by program, amines drawn as free bases though some values may be those of a salt).

Where only a bound is given, the exact number is not on record here.

As usually defined, the melting point is the temperature, or range, at which the solid turns liquid. Regarding `Cc1cccc(NC(=O)NCC(=O)N(CC(=O)Nc2cccc3cccnc23)c2ccccc2)c1`, the melting point was 170 °C.
For `CCCCCCCCCCCCCCC(=O)C(=O)NCCCC(=O)OC(C)(C)C` the value was 61 to 62 °C.
On to `CCOC(=O)CC(=NNc1ccc(C(=O)O)cc1C)C(C)=O`, for which the melting point lay in the range of 161 to 162 °C.
For the compound `Cc1ccccc1-c1nc(-c2cccc(Cl)c2)nn1C`, the melting point was 77 to 78 °C.
For `O=C1OC(=O)c2c(Sc3ccccc3)c(Sc3ccccc3)c(Sc3ccccc3)c(Sc3ccccc3)c21` the value was 141 to 142 °C; for `N#Cc1ccc(C(Cl)=NNc2c(Cl)cc(C(F)(F)F)cc2Cl)cc1`, 168 to 169 °C; for `CN(Cc1cc(C(F)(F)F)cc(C(F)(F)F)c1)C(=O)c1c(-c2ccc(F)cc2)c2cnccc2c(=O)n1C`, 136 to 138 °C.
Regarding `O=C(CBr)c1ccc(Br)s1`, the melting point was 79 °C.
As for `Cc1c([N+](=O)[O-])cnn1-c1c(Cl)cc(C(F)(F)F)cc1Cl`, the figure is 91 to 92 °C; as for `CC(C)NCC#CC(O)c1ccccc1-c1ccccc1` (stereo not drawn), 116 to 119 °C.
As for `N#CCc1cc(F)c(OCc2ccccc2)c(OCc2ccccc2)c1`, the figure is 120 to 121 °C.
Take `COc1ccc(OCCCCCCCc2cc(C)no2)c(Cl)c1`: the melting point was 45 to 46 °C.
`CC(=O)N1CCC(N(C)C(=O)c2ccc3nonc3c2)CC1` yielded a melting point of 173 to 175 °C.
As for `CN(Cc1cc2c3c(c1)c(=O)c(C(=O)NCc1ccc(Cl)cc1)cn3CC(=O)N2CCO)C[C@@H](O)c1ccco1`, the figure is 166 to 167 °C.
As for `NC(=O)c1ccc(F)c2c1OCC(N(CCCc1c[nH]c3c(F)cc(F)cc13)C1CCC1)C2` (stereo not drawn), the melting point amounted to 136 °C.
`Nc1cc(CCC(=O)N2CCCCC2)ccc1O` displayed a melting point of 149 to 150 °C.
As for `C[C@H]1[C@H](Oc2cccc(C(F)(F)F)c2)CN1C(N)=O` (relative stereo), the figure is 107 to 108 °C; as for `C=CCOC(=O)C(Cc1ccc2ccc3cccc4ccc1c2c34)(Cc1ccc2ccc3cccc4ccc1c2c34)C(=O)OCC=C`, 178 to 180 °C; as for `O=C(O)c1cccc2ccoc12`, 159 to 161 °C.
For `COc1ccc2c(c1)C(=O)NCc1c(-c3nc(C4CC4)no3)ncn1-2` the value was 245 °C; for `CC(C)(c1ccccc1)n1nnc(-c2ccccc2-c2ccc(C3OCCCO3)cc2)n1`, 102 to 106 °C; for `CCCC(=O)c1cc2ccccc2cc1C(=O)O`, 109 °C.
For `COc1cc2c(Cl)c(C#N)cnc2cc1OCC1CCN(C)CC1` the value was 166 to 168 °C; for `Cn1nc(N=Cc2ccncc2)nc1NCCCOC1=CCC=C(CN2CCCC2)C1`, 166 to 167 °C; for `CNC(=O)ON=C1N=C(C2CCCCC2)C(C)(C)S1`, 158 to 160 °C.
`O=C(Nc1ccc(-n2nc(C(F)(F)F)cc2C(F)(F)F)cc1)c1ccccc1O` returned a melting point of 173 to 175 °C.
As for `Cc1cc(N(C)S(C)(=O)=O)ccc1I`, the figure is 85 to 87 °C; as for `C=CCN1C(=O)N(CC=C)[C@@H](C(=O)O)[C@H]1C(=O)O`, 161 to 163 °C; as for `CC(C)(NC(=O)C(CS)Cc1ccccc1)C(=O)OCc1ccccc1` (stereo not drawn), 53 to 56 °C.
As for `CC(Oc1ccc(F)cc1)c1ccnc2ncnn12` (stereo not drawn), the figure is 100 to 102 °C; as for `CCCCCc1scc(C(=O)OC)c1NC1=CC(=O)N(CCC)C1`, more than 285 °C; as for `CN(C)c1nc(NCc2ccc(NC(=O)c3ccc(F)cc3)cc2)c2ccc(C#N)cc2n1`, 150 °C.
In turn, `CCOC(=O)c1ccc(N=C(Nc2ccc(C(=O)OCC)cc2)c2ccc(Cl)cc2)cc1` showed a melting point of 171 to 172 °C.
As for `O=C(Nc1cccc(S(=O)(=O)NCCc2ccncc2)c1)c1cnn2c(C(F)F)cc(-c3ccc(C(F)(F)F)cc3)nc12`, the figure is 238 °C; as for `c1ccc(-c2ccc(C3CN4CCC3CC4)cc2)cc1` (single isomer, unassigned; (+)), 85 to 86 °C.
`CN1C(=O)CN(C(=O)NC2C3CC4CC(C3)CC2C4)C(c2ccccc2)c2ccccc21` (racemic) showed a melting point of 243 to 244 °C.
As for `Cc1c(C(=O)O)ccc(=O)n1-c1ccc(Cl)cc1`, the figure is 271 to 273 °C; as for `O=C1CC(C(=O)O)NN1` (stereo not drawn), 188 to 190 °C; as for `O=C1C(=Cc2ccc(Cl)cc2)N2CCC1CC2`, 108 to 110 °C.
As for `O=c1ccccn1C1=CC(CF)(CF)Oc2ccc(C(F)(F)C(F)(F)F)cc21`, the figure is 137 to 138 °C; as for `CC(C)N[C@H](C(=O)NCCCC(c1ccc(F)cc1)c1ccc(F)cc1)C(C)C`, 72 to 80 °C; as for `COc1cccc(C(NC(=O)Cc2c(Cl)cncc2Cl)C2CCCC2)c1` (stereo not drawn), 105 to 106 °C.
On to `Clc1cc2c(c(-c3nc4ncccc4o3)c1)CCCC2`, for which the melting point was 130 to 132 °C.
For `O=C(OCC1CC1)c1ncn2c1C1C=CCN1C(=O)c1c(Cl)cccc1-2` (stereo not drawn) the value was 189 to 190 °C; for `CCOc1ccc2c(c1)C(c1ccccc1Cl)(N(C)C)C(=O)N2S(=O)(=O)c1ccc(NC(=O)N(CC)CC)cc1OC` (stereo not drawn), 212 to 214 °C.
On to `O=C1CCC(Cc2ccc(Br)cc2)=C1O`, for which the melting point lay within 144 to 145 °C.
As for `Cn1ncc2c(C(F)(F)F)cc(Cl)nc21`, the figure is 123 °C; as for `C#Cc1cccc(-c2cccc([N+](=O)[O-])c2-c2cc(C#C)ccn2)c1`, 130 to 132 °C.
In the case of `Cc1cc(S(=O)(=O)c2ccccc2)ccc1[N+](=O)[O-]`, the melting point lay within 70 to 71 °C.
As for `O=c1c(CCc2nc3ccccc3s2)cc2cccnc2n1-c1cccc([N+](=O)[O-])c1`, the figure is 178 to 179 °C; as for `COC(=O)[C@H](CO)NC(=O)[C@@H]1CCCN1C(=O)OCc1ccccc1`, 97 to 100 °C; as for `CCOC(=O)N1CCC(n2cnc3ccc(-c4nnc(C)o4)cc32)CC1`, 179 to 180 °C.
For `Cc1cc2c(c(C)c1O)C(C)CN2C(=O)C(C)C` (stereo not drawn) the value was 123 to 125 °C; for `OCCSCc1ccc(CSCCO)cc1`, 90 to 92 °C; for `O=c1cc(C2CCCC2)oc2ccc(OCCCCCCCl)cc12`, 125 to 126 °C.
For `O=C(CCCCl)Nc1ccc2c(c1)C(=O)c1cc(NC(=O)CCCCl)ccc1C2=O` the value was 234 °C.
With `COc1ccc(Cc2sccc2OC2OC(COC(C)=O)C(OC(C)=O)C(OC(C)=O)C2OC(C)=O)cc1` (stereo not drawn), the melting point was in the range of 116 to 118 °C.
As for `COc1cc(-c2nc3ccc(OCCCN(C)C)cc3n2Cc2ccccc2)cc(OC)c1OC`, the figure is 112 °C.
`Cc1cc(C)c(S(=O)(=O)N(C)C)cc1[N+](=O)[O-]` returned a melting point of 113 °C.
For `CC1(C)Cc2c(CO)c(O)c3c(c2C(c2ccccc2)=N1)CC(C)(C)O3` the value was 210 to 230 °C; for `Cc1c(Cl)cccc1S(=O)(=O)n1c(CCCC(=O)O)cc2nc(Cl)ccc21`, 127 to 128 °C.
As to `CCOC(=O)C=CC(=S)c1ccc(-c2ccccc2)cc1`, the melting point was in the range of 74 to 75 °C.
`COC(=O)c1cc(OC)c(Br)c(OC)c1` displayed a melting point of 120 to 122 °C.
The compound `COc1ccc(C2=NOC3(C2)C(=O)CN(C)C3=O)cc1OC1CCCC1` (stereo not drawn) yielded a melting point of 169 to 170 °C.
Regarding `CC(C)N1CCN(c2ccc(-c3[nH]nc4c3C(=O)c3c(NC(=O)NN5CCN(C)CC5)cccc3-4)cc2)CC1`, the melting point was 272 °C.
Compound `COC(=N)c1ccc(C(=O)O)cn1` came in with a melting point of 284 to 286 °C.
In turn, `O=C(NCCCCCC(=O)c1ncco1)c1cc2ccccc2[nH]1` came in with a melting point of 176 to 179 °C.
As for `Cc1nc(C=O)c2n1-c1ccc(Cl)cc1C(c1ccccc1Cl)=NC2`, the figure is 237 to 239 °C.
Turning to `O=[N+]([O-])c1ccc(NCCCn2ccnc2)cc1`, the melting point was in the range of 130 to 132 °C.
As to `CC1(C)C=Cc2ccc(F)c(C#N)c2O1`, the melting point lay within 99 to 101 °C.
In the case of `CN1CCN(c2ccc(F)cc2C=C2CCCN(CCc3ccc(Cl)cc3)C2=O)CC1`, the melting point is 88 to 90 °C.
As for `CC(=O)c1c(NC(C)(C)C)nc(NC(C)(C)C)c(Br)c1C`, the figure is 99 to 100 °C; as for `NS(=O)(=O)c1ccc(C(=O)Nc2cn3cc(Cl)ccc3n2)cc1`, more than 320 °C; as for `O=C(Nc1ccc(C(=O)Oc2ccccc2)c(Cl)c1)c1ccccc1`, 126 to 128 °C.
For `CC(C)(CO)c1ccc(C(O)CCCN2CCC(=C3c4ccccc4CCc4ccccc43)CC2)cc1` (stereo not drawn) the value was 157 to 159 °C; for `Cc1[nH]c(-c2ccccc2)nc1-c1ccc(Cl)c(Cl)c1`, 169 to 171 °C.
In turn, `C#CCOc1cc(N)c(F)cc1Cl` came in with a melting point of 61 to 61.5 °C.
For `O=C(O)CCCCn1ccnc1` the value was 157 to 158 °C.
As for `O=c1[nH]cnc2ccc(S(=O)(=O)Cl)cc12`, the figure is more than 400 °C; as for `CCCCc1oc2ccccc2c1C(=O)NCc1ccc2c(Br)c(OC(Cc3ccccc3)C(=O)O)ccc2c1` (stereo not drawn), 125 to 130 °C; as for `COc1ccc2c(c1)c(CCO)c(C)n2-c1ncnc2cc(Cl)ccc12`, 148 to 150 °C.
As for `Cc1nnc2ccc(-c3cccc(N(C)C(=O)C4CC4)c3)nn12`, the figure is 169 to 172 °C; as for `O=c1c2cc(F)c(N3CCCC3)nc2n(-c2cccc(C(F)(F)F)c2)c(=O)n1O`, 136 to 138 °C; as for `CCOC(=O)c1nc2ccccc2n1[C@@H]1CC(C)(C)Oc2ccc(C#N)cc21`, 169 to 171 °C.
In turn, `CCCCOc1ccc(S(=O)(=O)C2(C(=O)NO)CCN(CCOc3ccccc3)CC2)cc1` yielded a melting point of 112 °C.
Consider `CC(C)(O)C#Cc1cccc(N)c1`, for which the melting point fell in the range of 118 to 119 °C.
With `CCCS(=O)(=O)Oc1c(C(=O)c2ccc3c(c2C)C(SCC)CCS3(=O)=O)cnn1CC` (stereo not drawn), the melting point was in the range of 140 to 145 °C.
As for `O=[N+]([O-])c1cccc2cc(-c3ccccc3)cnc12`, the figure is 112 to 114 °C.
